Holding throughout (assay type): binding
Experiment [1] concerns the target T1, HRas^G12V (Homo sapiens (Human), UniProt P01112, G12V). As to the kind of experiment: Dissociation constant by SPR. The procedure: SPR experiments were performed using the P4SPR from Affinité Instruments using Ni-NTA immobilization chips and his-tagged protein. Ni-NTA coated surfaces allow the immobilization of his-tagged proteins by chelation of histidine residues to the nickel ion. The sensor chip was inserted into a quad inlet model P4SPR (with 4 independent channels). Once the instrument was turned on, the baseline was stabilized by deionized (DI) water, followed by signal stabilization by the running buffer. His-tagged protein at 10 μg/mL was injected into all 4 channels of the P4SPR and was left to react for 20 min. The sensor chip was then washed with DI water. The lowest concentration of the ligand was injected into the channels of the P4SPR and was left to react for 10 min. The SPR shift was saved. Then, a higher concentration of the ligand was injected, and the sample injection steps were repeated until all 5 concentrations have been added. The KD of the binding interaction between the ligand and protein was determined by using the affinity curve fitting function in the P4SPR Control software.
In general terms: Surface plasmon resonance follows binding to a sensor surface in real time, without labels.

For experiment [2], the target named is T1, HRas^G12V. As to the kind of experiment: Dissociation constant by ITC. As for the experimental part:
ITC experiments were performed using a Nano ITC isothermal titration calorimeter from TA Instruments. Experiments were performed in reverse-mode by titrating 50 μL of protein solution at a concentration of 300-600 μM into 350 μL of ligand solution at concentrations between 10-50 μM. Stir rate was 200-250 rpm with 16-25 injections, each at 2-3 μL with 150 seconds between each injection. Data fitting was performed using Nano ITCRun software.
On the technique in general: Isothermal titration calorimetry measures the heat released or taken up as one component is titrated into another.

The next experiment concerns the target wild type HRAS (Homo sapiens (Human), UniProt P01112). As to the kind of experiment: NMR Kd, wild type HRAS. As for the experimental part: ^1H/^15N Fast-HSQC experiments (Mori et al., Journal of Magnetic Resonance, Series B, Volume 108, Issue 1, July 1995, Pages 94-98) were recorded at a protein concentration of 50-100 μM.
Dissociation constants were obtained by monitoring changes in chemical shifts as a function of ligand concentration. The changes in chemical shifts (d) were calculated according to the following equation (Williamson, Progress in Nuclear Magnetic Resonance Spectroscopy, Volume 73, August 2013, Pages 1-16): d=√(1/2[δ_H^2+[…]]), Where δ are the changes in chemical shift in ppm for ^1H and ^15N and the correction factor (α) was set at 0.15.
^1H 1D protein-observed experiments were recorded with 15-50 μM protein. The standard Bruker 1D ^1H sequence with excitation sculpting (zgesgp) was employed. A relaxation delay of 1 s was employed in order to use 256 scans while still keeping experimental time fairly short. Changes in protein chemical shift or peak intensity in the methyl region were monitored against compound concentration.
The activity of compounds of the invention regarding wild type HRAS was measured in the same as in Example 80. The results obtained with the compounds in the various assays described above are depicted in Table 2.

T1 sequence (P01112 1-166 G12V): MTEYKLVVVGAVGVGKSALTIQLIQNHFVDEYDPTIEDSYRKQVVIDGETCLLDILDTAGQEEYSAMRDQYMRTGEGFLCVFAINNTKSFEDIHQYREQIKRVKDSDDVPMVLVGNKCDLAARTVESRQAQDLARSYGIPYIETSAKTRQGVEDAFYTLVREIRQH
Chain of wild type HRAS (P01112 whole entry): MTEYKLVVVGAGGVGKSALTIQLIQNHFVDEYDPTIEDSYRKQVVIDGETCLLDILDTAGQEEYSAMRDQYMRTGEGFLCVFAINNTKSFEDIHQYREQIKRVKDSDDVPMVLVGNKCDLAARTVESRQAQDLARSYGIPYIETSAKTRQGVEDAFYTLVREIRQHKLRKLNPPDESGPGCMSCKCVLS

On to `CN(C)CC(=O)Nc1cccc(NC(=O)Cc2c[nH]c3cc(F)ccc23)c1` [compound 10097], for which the values for the Kd at HRas^G12V [1] and on HRas^G12V [2] were 31 µM and 17 to 159 µM, respectively.

For `CC(C)N1CCC(NC(=O)Cc2c[nH]c3cc(F)ccc23)CC1` [Compound 10018], the Kd (in general, a measure of binding affinity in units of concentration) at wild type HRAS came to 5180 µM.
